Data on 30 compounds can be found in patent US8063065B2, “Azaindazole compounds as CCR1 receptor antagonists” (Boehringer Ingelheim International GmbH, priority 2008, dated 2011).

A word on the IC50: it is the concentration at which inhibition is half-maximal.

The target in this test is T1, CCR1 (Homo sapiens, UniProt P32246).
T1 sequence (P32246 1-355): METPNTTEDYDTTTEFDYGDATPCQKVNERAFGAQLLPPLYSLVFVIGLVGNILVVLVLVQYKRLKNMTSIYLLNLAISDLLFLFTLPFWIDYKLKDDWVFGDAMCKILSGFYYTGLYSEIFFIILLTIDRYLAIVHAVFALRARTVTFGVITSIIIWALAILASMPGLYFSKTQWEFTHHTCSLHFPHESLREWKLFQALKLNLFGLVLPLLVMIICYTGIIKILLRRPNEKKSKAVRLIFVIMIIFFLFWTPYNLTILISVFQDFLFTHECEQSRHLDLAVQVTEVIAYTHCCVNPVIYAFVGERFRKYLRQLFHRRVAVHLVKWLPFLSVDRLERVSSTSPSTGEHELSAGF
The experiment in a line: Method B: calcium flux in CCR1 transfected cells (Calcium 4 dye, […] FDSS6000), block of the CCR1/MIP-1α interaction. The class given is cell-based. As to conditions: Method B: Calcium 4 dye, MIP-1alpha at EC80. In a few lines:
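Calcium flux on an FDSS6000 was triggered by MIP-1α at its EC80 in stably CCR1/G-alpha-16-expressing non-adherent cells. Before this, Calcium 4-loaded cells were preincubated with compound in HBSS, 20 mM HEPES pH 7.4, 1% DMSO: 30 min at 37 C plus 30 min at room temperature. Ten 4-fold doses began at 3,000 nM, with ±MIP-1α DMSO wells as controls.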
A general note: A change in cytosolic calcium serves as a functional read-out for many receptors and channels.

For `CC[C@H](NC(=O)c1cncc2c1cnn2-c1ccc(F)cc1)c1cc(N(C)CC(N)=O)nc(S(C)(=O)=O)c1` [1-(4-Fluorophenyl)-1H-pyrazolo[3,4-c]pyridine-4-carboxylic acid {(S)-1-[2-(carbamoylmethyl-methyl-amino)-6-methanesulfonyl-pyridin-4-yl]-propyl}-amide], the IC50 was 0.3 nM.

As for `CCC(NC(=O)c1cncc2c1cnn2-c1ccc(F)cc1)c1cnc(N(C)S(C)(=O)=O)nc1` (stereo not drawn) [1-(4-Fluorophenyl)-1H-pyrazolo[3,4-c]pyridine-4-carboxylic acid {1-[2-(methanesulfonyl-methyl-amino)-pyrimidin-5-yl]-propyl}-amide], the IC50 was determined as 7 nM. As to `CN(c1ncc(CNC(=O)c2cncc3c2cnn3-c2ccc(F)cc2)cn1)S(C)(=O)=O` [1-(4-Fluorophenyl)-1H-pyrazolo[3,4-c]pyridine-4-carboxylic acid [2-(methanesulfonyl-methyl-amino)-pyrimidin-5-ylmethyl]-amide], the IC50 was 2 nM.

Take `CS(=O)(=O)c1nc(CNC(=O)c2cncc3c2cnn3-c2ccc(F)cc2)cs1` [1-(4-Fluorophenyl)-1H-pyrazolo[3,4-c]pyridine-4-carboxylic acid (2-methanesulfonyl-thiazol-4-ylmethyl)-amide]: the IC50 stood at 29 nM. As for `CC[C@H](NC(=O)c1cncc2c1cnn2-c1ccc(F)cc1)c1ccnc(N2CCS(=O)(=O)CC2)c1` [1-(4-Fluorophenyl)-1H-pyrazolo[3,4-c]pyridine-4-carboxylic acid {(S)-1-[2-(1,1-dioxo-1λ6-thiomorpholin-4-yl)-pyridin-4-yl]-propyl}-amide], the figure is 12 nM; as for `CCC(NC(=O)c1cncc2c1cnn2-c1ccc(F)cc1)C1CCN(S(C)(=O)=O)CC1` (stereo not drawn) [1-(4-Fluorophenyl)-1H-pyrazolo[3,4-c]pyridine-4-carboxylic acid [1-(1-methanesulfonyl-piperidin-4-yl)-propyl]-amide], 2 nM. Regarding `C[C@H](NC(=O)c1cncc2c1cnn2-c1ccc(F)cc1)c1cc(NCC(N)=O)nc(S(C)(=O)=O)c1` [1-(4-Fluorophenyl)-1H-pyrazolo[3,4-c]pyridine-4-carboxylic acid {(S)-1-[2-(carbamoylmethyl-amino)-6-methanesulfonyl-pyridin-4-yl]-ethyl}-amide], the IC50 is 0.6 nM. On to `CC[C@H](NC(=O)c1cncc2c1cnn2-c1ccc(F)cc1)c1ccncc1` [1-(4-Fluorophenyl)-1H-pyrazolo[3,4-c]pyridine-4-carboxylic acid ((S)-1-pyridin-4-yl-propyl)-amide], for which the IC50 came out at 6 nM. As for `CC[C@H](NC(=O)c1cncc2c1cnn2-c1ccc(F)cc1)c1ccnc(SC)c1` [1-(4-Fluorophenyl)-1H-pyrazolo[3,4-c]pyridine-4-carboxylic acid [(S)-1-(2-methylsulfanyl-pyridin-4-yl)-propyl]-amide], the figure is 0.2 nM; as for `CC[C@H](NC(=O)c1cncc2c1cnn2-c1ccc(F)cc1)c1cccc(S(C)(=O)=O)c1` [1-(4-Fluorophenyl)-1H-pyrazolo[3,4-c]pyridine-4-carboxylic acid [(S)-1-(3-methanesulfonyl-phenyl)-propyl]-amide], 0.3 nM. The same measure for `CC[C@H](NC(=O)c1cncc2c1cnn2-c1ccc(F)cc1)c1ccnc(S(=O)(=O)CCC(=O)OC)c1` [3-[4-((S)-1-{[1-(4-Fluorophenyl)-1H-pyrazolo[3,4-c]pyridine-4-carbonyl]-amino}-propyl)-pyridine-2-sulfonyl]-propionic acid methyl ester]: 1 nM; for `CC(=O)N(C)c1ncc(CNC(=O)c2cncc3c2cnn3-c2ccc(F)cc2)cn1` [1-(4-Fluorophenyl)-1H-pyrazolo[3,4-c]pyridine-4-carboxylic acid [2-(acetyl-methyl-amino)-pyrimidin-5-ylmethyl]-amide]: 24 nM; for `CC[C@H](NC(=O)c1cncc2c1cnn2-c1ccc(F)cc1)c1cc(NC)nc(S(C)(=O)=O)c1` [1-(4-Fluorophenyl)-1H-pyrazolo[3,4-c]pyridine-4-carboxylic acid [(S)-1-(2-methanesulfonyl-6-methylamino-pyridin-4-yl)-propyl]-amide]: 0.3 nM. With `CC[C@H](NC(=O)c1cncc2c1cnn2-c1ccc(F)cc1)[C@@H]1CCN(S(C)(=O)=O)[C@H](C(N)=O)C1` [1-(4-Fluorophenyl)-1H-pyrazolo[3,4-c]pyridine-4-carboxylic acid [(S)-1-((2S,4R)-2-carbamoyl-1-methanesulfonyl-piperidin-4-yl)-propyl]-amide], the IC50 came to 12 nM.

On to `CCC[C@H](NC(=O)c1cncc2c1cnn2-c1ccc(F)cc1)c1ccc(S(C)(=O)=O)nc1` [1-(4-Fluorophenyl)-1H-pyrazolo[3,4-c]pyridine-4-carboxylic acid [(S)-1-(6-methanesulfonyl-pyridin-3-yl)-butyl]-amide], for which the IC50 came to 0.4 nM. With `CC[C@H](NC(=O)c1cncc2c1cnn2-c1ccc(F)cc1)c1ccc(Br)s1` [1-(4-Fluorophenyl)-1H-pyrazolo[3,4-c]pyridine-4-carboxylic acid [(S)-1-(5-bromo-thiophen-2-yl)-propyl]-amide], the IC50 amounted to 0.6 nM. On to `CCC(NC(=O)c1cncc2c1cnn2-c1ccc(F)cc1)C1CCN(C(C)=O)CC1` (stereo not drawn) [1-(4-Fluorophenyl)-1H-pyrazolo[3,4-c]pyridine-4-carboxylic acid [1-(1-acetyl-piperidin-4-yl)-propyl]-amide], for which the IC50 was found to be 10 nM. `CCC(CC)(NC(=O)c1cncc2c1cnn2-c1ccc(F)cc1)c1ccnc(Br)c1` [1-(4-Fluorophenyl)-1H-pyrazolo[3,4-c]pyridine-4-carboxylic acid [1-(2-bromo-pyridin-4-yl)-1-ethyl-propyl]-amide]: the IC50 stood at 29 nM.

Regarding `CC[C@H](NC(=O)c1cncc2c1cnn2-c1ccc(F)cc1)c1ccnc(C(N)=O)c1` [1-(4-Fluorophenyl)-1H-pyrazolo[3,4-c]pyridine-4-carboxylic acid [(S)-1-(2-carbamoyl-pyridin-4-yl)-propyl]-amide], the IC50 came to 1 nM. As to `CC[C@H](NC(=O)c1cncc2c1cnn2-c1ccc(F)cc1)c1cc(S(C)(=O)=O)c[nH]1` [1-(4-Fluorophenyl)-1H-pyrazolo[3,4-c]pyridine-4-carboxylic acid [(S)-1-(4-methanesulfonyl-1H-pyrrol-2-yl)-propyl]-amide], the IC50 amounted to 1 nM. `CCS(=O)(=O)c1cc([C@H](C)NC(=O)c2cncc3c2cnn3-c2ccc(F)cc2)ccn1` [1-(4-Fluorophenyl)-1H-pyrazolo[3,4-c]pyridine-4-carboxylic acid [(S)-1-(2-ethanesulfonyl-pyridin-4-yl)-ethyl]-amide]: the IC50 turned out to be 2 nM. Turning to `CC[C@H](NC(=O)c1cncc2c1cnn2-c1ccc(F)cc1)c1ccnc(S(=O)(=O)CC)c1` [1-(4-Fluorophenyl)-1H-pyrazolo[3,4-c]pyridine-4-carboxylic acid [(S)-1-(2-ethanesulfonyl-pyridin-4-yl)-propyl]-amide], the IC50 turned out to be 0.2 nM.

With `CC[C@H](NC(=O)c1cncc2c1cnn2-c1ccc(F)cc1)c1cc(S(C)(=O)=O)co1` [1-(4-Fluorophenyl)-1H-pyrazolo[3,4-c]pyridine-4-carboxylic acid [(S)-1-(4-methanesulfonyl-furan-2-yl)-propyl]-amide], the IC50 was 6 nM. `CCC(C)(NC(=O)c1cncc2c1cnn2-c1ccc(F)cc1)c1ccnc(S(C)(=O)=O)c1` (stereo not drawn) [1-(4-Fluorophenyl)-1H-pyrazolo[3,4-c]pyridine-4-carboxylic acid [1-(2-methanesulfonyl-pyridin-4-yl)-1-methyl-propyl]-amide]: the half-maximal inhibitory concentration (IC50) was determined as 6 nM. As for `CC[C@H](NC(=O)c1cncc2c1cnn2-c1ccc(F)cc1)c1cc(Br)no1` [1-(4-Fluorophenyl)-1H-pyrazolo[3,4-c]pyridine-4-carboxylic acid [(S)-1-(3-bromo-isoxazol-5-yl)-propyl]-amide], the IC50 was found to be 28 nM. As for `CC[C@H](NC(=O)c1cncc2c1cnn2-c1ccc(F)cc1)c1ccc(S(C)(=O)=O)s1` [1-(4-Fluorophenyl)-1H-pyrazolo[3,4-c]pyridine-4-carboxylic acid [(S)-1-(5-methanesulfonyl-thiophen-2-yl)-propyl]-amide], the figure is 0.2 nM. As for `C[C@H](NC(=O)c1cncc2c1cnn2-c1ccc(F)cc1)c1csc(S(C)(=O)=O)n1` [1-(4-Fluorophenyl)-1H-pyrazolo[3,4-c]pyridine-4-carboxylic acid [(S)-1-(2-methanesulfonyl-thiazol-4-yl)-ethyl]-amide], the IC50 worked out at 4 nM.

As for `CS(=O)(=O)c1cc([C@H](CC2COC(=O)O2)NC(=O)c2cncc3c2cnn3-c2ccc(F)cc2)ccn1` (stereo partly drawn) [1-(4-Fluorophenyl)-1H-pyrazolo[3,4-c]pyridine-4-carboxylic acid [(S)-1-(2-methanesulfonyl-pyridin-4-yl)-2-(2-oxo-1,3-dioxolan-4-yl)-ethyl]-amide], the IC50 was 6 nM. On to `CC[C@H](NC(=O)c1nccc2c1cnn2-c1ccc(F)cc1)c1ccnc(S(C)(=O)=O)c1` [1-(4-Fluorophenyl)-1H-pyrazolo[4,3-c]pyridine-4-carboxylic acid [(S)-1-(2-methanesulfonyl-pyridin-4-yl)-propyl]-amide], for which the IC50 worked out at 3 nM. Take `CC[C@H](NC(=O)c1cncc2c1cnn2-c1ccc(F)cc1)c1cn[nH]c1` [1-(4-Fluorophenyl)-1H-pyrazolo[3,4-c]pyridine-4-carboxylic acid [(S)-1-(1H-pyrazol-4-yl)-propyl]-amide]: the IC50 is 36 nM.
